Test results taken from PubChem BioAssay AID248 (DTP/NCI, 2004).
Several values for one entry are separate records, joined by “and”; a condition that tells them apart may be missing. Equal values may be shown once. Inconclusive results and toxic doses are left out. No stated cut-off is given here; in the data, active means T/C of 150% or more; inactive means T/C below 125%.

System: L1210 leukemia ip in BDF1 mice, survival T/C
Assay: NCI In Vivo Anticancer Drug Screen. Data for tumor model L1210 Leukemia (intraperitoneal) in B6D2F1 (BDF1) mice
Conditions: endpoint: mean survival time, higher = longer survival
Method in brief: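 Mice bearing the transplanted tumor received compound or vehicle. Survival of the treated group was divided by that of the vehicle-treated control group to give the ratio.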

[1] = dose: 100.0 mg/kg/injection, schedule: Q01DX001 (ip), vehicle: carboxymethylcellulose (CMC)
[2] = dose: 200.0 mg/kg/injection, schedule: Q01DX001 (ip), vehicle: carboxymethylcellulose (CMC)
[3] = dose: 400.0 mg/kg/injection, schedule: Q01DX001 (ip), vehicle: carboxymethylcellulose (CMC)
[4] = dose: 100.0 mg/kg/injection, schedule: Q01DX009 (ip), vehicle: Klucel (hydroxypropylcellulose) (HPC)
[5] = dose: 200.0 mg/kg/injection, schedule: Q01DX009 (ip), vehicle: Klucel (hydroxypropylcellulose) (HPC)
[6] = dose: 400.0 mg/kg/injection, schedule: Q01DX009 (ip), vehicle: Klucel (hydroxypropylcellulose) (HPC)
[7] = dose: 50.0 mg/kg/injection, schedule: Q01DX009 (ip), vehicle: saline with Tween-80
[8] = dose: 100.0 mg/kg/injection, schedule: Q04DX002 (ip), vehicle: gum acacia
[9] = dose: 200.0 mg/kg/injection, schedule: Q04DX002 (ip), vehicle: gum acacia
[10] = dose: 400.0 mg/kg/injection, schedule: Q04DX002 (ip), vehicle: gum acacia
[11] = dose: 100.0 mg/kg/injection, schedule: Q04DX003 (ip), vehicle: saline with Tween-80
[12] = dose: 200.0 mg/kg/injection, schedule: Q04DX003 (ip), vehicle: saline with Tween-80
[13] = dose: 400.0 mg/kg/injection, schedule: Q04DX003 (ip), vehicle: saline with Tween-80
[14] = dose: 100.0 mg/kg/injection, schedule: Q04DX003 (ip), vehicle: Klucel (hydroxypropylcellulose) (HPC)
[15] = dose: 200.0 mg/kg/injection, schedule: Q04DX003 (ip), vehicle: Klucel (hydroxypropylcellulose) (HPC)
[16] = dose: 400.0 mg/kg/injection, schedule: Q04DX003 (ip), vehicle: Klucel (hydroxypropylcellulose) (HPC)
[17] = dose: 100.0 mg/kg/injection, schedule: Q01DX001 (ip), vehicle: saline
[18] = dose: 200.0 mg/kg/injection, schedule: Q01DX001 (ip), vehicle: saline
[19] = dose: 400.0 mg/kg/injection, schedule: Q01DX001 (ip), vehicle: saline
[20] = dose: 100.0 mg/kg/injection, schedule: Q04DX003 (ip), vehicle: saline
[21] = dose: 200.0 mg/kg/injection, schedule: Q04DX003 (ip), vehicle: saline
[22] = dose: 400.0 mg/kg/injection, schedule: Q04DX003 (ip), vehicle: saline

Measured: T/C

Clc1ccc2ccc(Cl)cc2c1
inactive: [1] 103 % of control | [2] 95 % of control | [3] 94 % of control

CC(=O)Nc1ccc(/C(C#N)=C/c2ccc(N(C)CCC#N)cc2)cc1
inactive: [4] 98 % of control | [5] 100 % of control | [6] 96 % of control

CCOC(=O)C(CNC(N)=O)(c1ccccc1)c1ccccc1
inactive: dose: 50.0 mg/kg/injection, schedule: Q01DX001 (ip), vehicle: carboxymethylcellulose (CMC) 93 % of control | [1] 102 % of control | [2] 87 % of control | [3] 98 % of control

O=C(/C(=C\c1ccccc1)CO)c1ccccc1
inactive: dose: 12.5 mg/kg/injection, schedule: Q01DX009 (ip), vehicle: saline with Tween-80 89 % of control | dose: 25.0 mg/kg/injection, schedule: Q01DX009 (ip), vehicle: saline with Tween-80 89 % of control | [7] 87 % of control | dose: 62.0 mg/kg/injection, schedule: Q01DX009 (ip), vehicle: saline with Tween-80 106 % of control

O=C(COc1ccc(Cl)cc1Cl)Nc1ccc(Br)cc1
inactive: [8] 103 % of control | [9] 92 % of control | [10] 89 % of control

CC(=O)Nc1ccc([N+](=O)[O-])cc1
inactive: [8] 98 % of control | [9] 88 % of control | [10] 107 % of control

Cc1cccc2c1ccc1cc(C(C)C)ccc12
inactive: dose: 75.0 mg/kg/injection, schedule: Q01DX009 (ip), vehicle: Klucel (hydroxypropylcellulose) (HPC) 106 % of control | dose: 150.0 mg/kg/injection, schedule: Q01DX009 (ip), vehicle: Klucel (hydroxypropylcellulose) (HPC) 105 % of control | dose: 300.0 mg/kg/injection, schedule: Q01DX009 (ip), vehicle: Klucel (hydroxypropylcellulose) (HPC) 98 % of control

COc1ccc(Nc2ccc3c4c(cccc24)C(=O)N(c2ccc(OC)cc2)C3=O)cc1
inactive: dose: 100.0 mg/kg/injection, schedule: Q04DX002 (ip), vehicle: saline with Tween-80 92 % of control | dose: 200.0 mg/kg/injection, schedule: Q04DX002 (ip), vehicle: saline with Tween-80 95 % of control | dose: 400.0 mg/kg/injection, schedule: Q04DX002 (ip), vehicle: saline with Tween-80 92 % of control

NC(C(=O)O)c1ccccc1C(=O)O (stereo not given)
inactive: [11] 96 % of control | [12] 103 % of control | [13] 103 % of control

CCCCCCCCCCCCCCCCCC(=O)Nc1ccc(O)cc1
inactive: dose: 100.0 mg/kg/injection, schedule: Q01DX009 (ip), vehicle: gum acacia 87 % of control | dose: 100.0 mg/kg/injection, schedule: Q04DX003 (ip), vehicle: gum acacia 88 % of control | dose: 200.0 mg/kg/injection, schedule: Q01DX009 (ip), vehicle: gum acacia 90 % of control | dose: 200.0 mg/kg/injection, schedule: Q04DX003 (ip), vehicle: gum acacia 88 % of control | dose: 400.0 mg/kg/injection, schedule: Q01DX009 (ip), vehicle: gum acacia 90 % of control | dose: 400.0 mg/kg/injection, schedule: Q04DX003 (ip), vehicle: gum acacia 90 % of control

O=C(O)/C=C\C(=O)Nc1ccc(O)cc1
inactive: [14] 102 % of control | dose: 200.0 mg/kg/injection, schedule: Q01DX Z (ip), vehicle: saline 120 % of control | [15] 110 % of control | [16] 110 % of control | dose: 675.0 mg/kg/injection, schedule: Q01DX Z (ip), vehicle: saline 100 % of control

Nc1[nH]c(=O)[nH]c(=O)c1N=Nc1ccc(S(=O)(=O)Nc2nccs2)cc1
inactive: [17] 98 % of control | [18] 100 % of control | [19] 102 % of control

COc1ccc(OC)c(NC(=O)Nc2cc([N+](=O)[O-])ccc2OC)c1
inactive: dose: 50.0 mg/kg/injection, schedule: Q01DX009 (ip), vehicle: Klucel (hydroxypropylcellulose) (HPC) 101 % of control | [4] 97 % of control | [5] 111 % of control

O=P1(c2ccccc2)OCCO1
inactive: dose: 25.0 mg/kg/injection, schedule: Q01DX009 (ip), vehicle: carboxymethylcellulose (CMC) 97 % of control and 98 % of control | dose: 50.0 mg/kg/injection, schedule: Q01DX009 (ip), vehicle: carboxymethylcellulose (CMC) 100 % of control and 101 % of control | dose: 100.0 mg/kg/injection, schedule: Q01DX009 (ip), vehicle: carboxymethylcellulose (CMC) 94 % of control and 100 % of control and 101 % of control | dose: 100.0 mg/kg/injection, schedule: Q04DX002 (ip), vehicle: carboxymethylcellulose (CMC) 93 % of control and 102 % of control | dose: 100.0 mg/kg/injection, schedule: Q04DX003 (ip), vehicle: carboxymethylcellulose (CMC) 103 % of control | dose: 200.0 mg/kg/injection, schedule: Q04DX002 (ip), vehicle: carboxymethylcellulose (CMC) 96 % of control | dose: 200.0 mg/kg/injection, schedule: Q04DX003 (ip), vehicle: carboxymethylcellulose (CMC) 107 % of control | dose: 400.0 mg/kg/injection, schedule: Q04DX002 (ip), vehicle: carboxymethylcellulose (CMC) 96 % of control | dose: 400.0 mg/kg/injection, schedule: Q04DX003 (ip), vehicle: carboxymethylcellulose (CMC) 97 % of control

OC1CCCC(c2ccccc2)C1 (stereo not given)
inactive: [4] 97 % of control | [5] 97 % of control | [6] 95 % of control

c1ccc([P+](CCC[P+](c2ccccc2)(c2ccccc2)c2ccccc2)(c2ccccc2)c2ccccc2)cc1
inactive: dose: 2.0 mg/kg/injection, schedule: Q01DX009 (ip), vehicle: saline 105 % of control | dose: 2.0 mg/kg/injection, schedule: Q04DX003 (ip), vehicle: saline 106 % of control | dose: 4.0 mg/kg/injection, schedule: Q01DX009 (ip), vehicle: saline 108 % of control | dose: 4.0 mg/kg/injection, schedule: Q04DX003 (ip), vehicle: saline 101 % of control | dose: 8.0 mg/kg/injection, schedule: Q01DX009 (ip), vehicle: saline 107 % of control | dose: 8.0 mg/kg/injection, schedule: Q04DX003 (ip), vehicle: saline 94 % of control and 97 % of control

O=C1CCC(N2C(=O)C3C4CCC(O4)C3C2=O)C(=O)N1 (stereo not given)
inactive: dose: 100.0 mg/kg/injection, schedule: Q04DX002 (ip), vehicle: Klucel (hydroxypropylcellulose) (HPC) 103 % of control | [11] 96 % of control | dose: 200.0 mg/kg/injection, schedule: Q04DX002 (ip), vehicle: Klucel (hydroxypropylcellulose) (HPC) 113 % of control | [12] 100 % of control | dose: 400.0 mg/kg/injection, schedule: Q04DX002 (ip), vehicle: Klucel (hydroxypropylcellulose) (HPC) 103 % of control | [13] 96 % of control

Brc1cccc2c1C[n+]1ccccc1-2
inactive: dose: 75.0 mg/kg/injection, schedule: Q01DX001 (ip), vehicle: saline 96 % of control | dose: 150.0 mg/kg/injection, schedule: Q01DX001 (ip), vehicle: saline 92 % of control

O=C(Nc1cc(C(F)(F)F)ccc1Cl)c1ccccc1
inactive: [4] 90 % of control | [20] 117 % of control | [5] 108 % of control | [21] 101 % of control | [6] 111 % of control | [22] 103 % of control

CC(C)(O)Cc1ccc(Br)cc1
inactive: [7] 95 % of control | dose: 100.0 mg/kg/injection, schedule: Q01DX009 (ip), vehicle: saline with Tween-80 103 % of control | dose: 200.0 mg/kg/injection, schedule: Q01DX009 (ip), vehicle: saline with Tween-80 111 % of control

C[C@]12CC[C@H](O)CC1=CC[C@@H]1[C@@H]2CC[C@](C)(C(=O)O)[C@H]1CC1Nc2ccccc2C1=O (stereo not given in full)
inactive: [17] 95 % of control | [20] 91 % of control | [18] 92 % of control and 91 % of control | [21] 95 % of control | [19] 97 % of control and 86 % of control | [22] 104 % of control

COc1ccc(C(=O)/C=C/c2ccc(Cl)cc2)cc1
inactive: [14] 100 % of control | [15] 95 % of control | [16] 92 % of control
